# pEC50, pKd, pKi: −log10 of the molar value.
# How the values were obtained:
# [1] = target: T1, Histamine H2 receptor (Homo sapiens, UniProt P25021); experiment: Displacement of [3H]UR-DE257 from Gsalphas-coupled human H2R expressed in Sf9 cell membranes by competitive binding assay; parameters: species or system Membrane
# [2] = target: T1, Histamine H2 receptor; experiment: Agonist activity at human H2 receptor expressed in Sf9 cell membranes co-exprssing GsalphaS assessed as stimulation of [35S]GTPgammaS binding incubated for 90 mins by scintillation counting analysis; assay type: functional, Membrane
# [3] = target: T1, Histamine H2 receptor; experiment: Binding affinity to human H2R expressed in HEK293T-qs5-HA cells by flow cytometry analysis; assay type: cell-based
# [4] = target: T1, Histamine H2 receptor; experiment: Agonist activity at NlucN/mini-Gi protein-fused human H2R stably expressed in HEK293T cells assessed as induction of mini-Gi protein recruitment using furimazine as substrate measured for 45 mins by luminescence assay; assay type: functional, cell-based
# [5] = target: T1, Histamine H2 receptor; experiment: Agonist activity at human H2 receptor expressed in HEK293T-ARRB2 cells assessed as stimulation of beta-arrestin 2 recruitment; assay type: functional, cell-based
# [6] = target: T1, Histamine H2 receptor; experiment: Agonist activity at human H2 receptor expressed in HEK293T-ARRB1 cells assessed as stimulation of beta-arrestin 1 recruitment; assay type: functional, cell-based
# [7] = target: T1, Histamine H2 receptor; experiment: Agonist activity at human H2 receptor expressed in HEK293T-ARRB1 cells assessed as stimulation of beta-arrestin 1 recruitment by measuring maximum efficacy; assay type: functional, cell-based; settings: filed as agonist
# T1 sequence (P25021 whole entry): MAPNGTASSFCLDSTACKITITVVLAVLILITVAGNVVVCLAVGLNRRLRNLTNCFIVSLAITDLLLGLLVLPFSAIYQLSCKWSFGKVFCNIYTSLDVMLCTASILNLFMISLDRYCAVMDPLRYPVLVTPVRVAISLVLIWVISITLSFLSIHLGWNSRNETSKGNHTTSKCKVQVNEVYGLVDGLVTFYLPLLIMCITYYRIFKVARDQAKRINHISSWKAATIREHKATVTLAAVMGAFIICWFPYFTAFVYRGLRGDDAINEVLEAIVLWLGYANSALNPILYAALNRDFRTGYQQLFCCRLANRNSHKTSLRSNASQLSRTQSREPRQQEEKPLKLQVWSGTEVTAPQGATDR
pKi [1],pEC50 [2],pKd [3],pEC50 [4],pEC50 [5],pEC50 [6],Emax [7],SMILES
6.58,5.89,< 6.00,6.12,–,–,–,Cc1nc(N)sc1CCCN/C(N)=N/C(=O)NCCCCCCCCNC(=O)CCCCCN1/C(=C/C=C/C=C/C2=[N+](CCCCS(=O)(=O)O)c3ccccc3C2(C)C)c2cc(S(=O)(=O)[O-])ccc2C1(C)C
< 6.00,5.62,–,5.69,–,–,–,Cc1nc(N)sc1CCCN/C(N)=N/C(=O)NCCCCCCCCCCNC(=O)CCCCCN1/C(=C/C=C/C=C/C2=[N+](CCCCS(=O)(=O)O)c3ccccc3C2(C)C)c2cc(S(=O)(=O)[O-])ccc2C1(C)C
7.52,7.14,7.09,–,–,–,–,Cc1nc(N)sc1CCCN/C(N)=N/C(=O)NCCCCCCCCNC(=O)CCCCCNC(=O)COc1ccc(/C=C/C2=[N+]3C(=Cc4ccc(-c5cccs5)n4[B-]3(F)F)C=C2)cc1
7.18,6.92,7.25,6.47,6.94,6.37,0.25,CC1(C)C(/C=C/C=C/C=C2\c3ccccc3C(C)(C)N2CCCCCC(=O)NCCCCCCCCNC(=O)/N=C(\N)NCCCc2c[nH]cn2)=[N+](CCCCS(=O)(=O)[O-])c2ccccc21
–,–,–,–,–,–,1,NCCc1c[nH]cn1
6.58,7.00,6.95,6.59,7.19,6.47,0.55,CC1(C)C(/C=C/C=C/C=C2\c3ccccc3C(C)(C)N2CCCCCC(=O)NCCCCCCCCNC(=O)/N=C(\N)NCCCc2nnc(N)s2)=[N+](CCCCS(=O)(=O)[O-])c2ccccc21
6.25,6.47,7.15,5.96,6.89,6.21,0.09,Cc1nc(N)sc1CCCN/C(N)=N/C(=O)NCCCCCCCCNC(=O)CCCCCN1/C(=C/C=C/C=C/C2=[N+](CCCCS(=O)(=O)[O-])c3ccccc3C2(C)C)c2ccccc2C1(C)C
7.66,6.73,7.48,6.30,6.72,6.29,0.57,Cc1nc(N)sc1CCCN/C(N)=N/C(=O)NCCCCCCNC(=O)CCCCCN1/C(=C/C=C/C=C/C2=[N+](C)c3ccccc3C2(C)C)c2ccccc2C1(C)C
6.60,6.25,6.00,5.41,–,–,–,Cc1nc(N)sc1CCCN/C(N)=N/C(=O)NCCCCCCNC(=O)CCCCCN1/C(=C/C=C/C=C/C2=[N+](CCCCS(=O)(=O)[O-])c3ccccc3C2(C)C)c2ccccc2C1(C)C
7.02,6.17,6.64,5.84,–,–,–,Cc1nc(N)sc1CCCN/C(N)=N/C(=O)NCCCCCCCCCCNC(=O)CCCCCN1/C(=C/C=C/C=C/C2=[N+](CCCCS(=O)(=O)[O-])c3ccccc3C2(C)C)c2ccccc2C1(C)C

# Source: ChEMBL document CHEMBL5053521 (Bioorg Med Chem Lett, 2021)
